# Reference: PubChem BioAssay (NCI)
#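 Method: 48-hour compound exposure of cells in 96-well plates, five concentrations, linear interpolation of endpoints. Definition used: TGI = concentration required for complete inhibition of growth.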
# System: SF-268 CNS
# Assay: NCI tumour cell line growth inhibition, 48 h
row,SMILES,TGI
1,COC(=O)CC1CCN(C#N)CC1CC[N+](=O)[O-] (stereo not given),> 100 µM

# System: XF 498 CNS
# Assay: NCI tumour cell line growth inhibition, 48 h
row,SMILES,TGI
1,C/C(CC(=O)CCC(=O)Nc1cccc(C(F)(F)F)c1)=N\NC(=O)NN,> 100 µM
2,COc1ccccc1C12OC(=O)C1(C)Oc1ccccc1C2=O (stereo not given),> 100 µM
3,Brc1ccc(N=c2nc3ccccn3n3nc(-c4ccccc4)cc23)cc1,77 µM
4,O=CN/C=C/c1cc(O)ccc1O,34.1 µM

# System: DLD-1 colon
# Assay: NCI tumour cell line growth inhibition, 48 h
row,SMILES,TGI
1,C/C(CC(=O)CCC(=O)Nc1cccc(C(F)(F)F)c1)=N\NC(=O)NN,> 100 µM
2,COc1ccccc1C12OC(=O)C1(C)Oc1ccccc1C2=O (stereo not given),> 100 µM
3,Brc1ccc(N=c2nc3ccccn3n3nc(-c4ccccc4)cc23)cc1,47.7 µM
4,O=CN/C=C/c1cc(O)ccc1O,34.4 µM
5,COC(=O)CC1CCN(C#N)CC1CC[N+](=O)[O-] (stereo not given),> 100 µM

# System: M19-MEL melanoma
# Assay: NCI tumour cell line growth inhibition, 48 h
row,SMILES,TGI
1,C/C(CC(=O)CCC(=O)Nc1cccc(C(F)(F)F)c1)=N\NC(=O)NN,> 100 µM
2,COc1ccccc1C12OC(=O)C1(C)Oc1ccccc1C2=O (stereo not given),> 100 µM
3,Brc1ccc(N=c2nc3ccccn3n3nc(-c4ccccc4)cc23)cc1,> 100 µM
4,O=CN/C=C/c1cc(O)ccc1O,28.5 µM
5,COC(=O)CC1CCN(C#N)CC1CC[N+](=O)[O-] (stereo not given),> 100 µM

# System: RXF-631 renal
# Assay: NCI tumour cell line growth inhibition, 48 h
row,SMILES,TGI
1,C/C(CC(=O)CCC(=O)Nc1cccc(C(F)(F)F)c1)=N\NC(=O)NN,> 100 µM
2,COc1ccccc1C12OC(=O)C1(C)Oc1ccccc1C2=O (stereo not given),> 100 µM
3,Brc1ccc(N=c2nc3ccccn3n3nc(-c4ccccc4)cc23)cc1,> 100 µM
4,COC(=O)CC1CCN(C#N)CC1CC[N+](=O)[O-] (stereo not given),> 100 µM

# System: OVCAR-4 ovarian
# Assay: NCI tumour cell line growth inhibition, 48 h
row,SMILES,TGI
1,C/C(CC(=O)CCC(=O)Nc1cccc(C(F)(F)F)c1)=N\NC(=O)NN,> 100 µM
2,COc1ccccc1C12OC(=O)C1(C)Oc1ccccc1C2=O (stereo not given),> 100 µM
3,Brc1ccc(N=c2nc3ccccn3n3nc(-c4ccccc4)cc23)cc1,20.7 µM
4,O=CN/C=C/c1cc(O)ccc1O,32.2 µM
5,COC(=O)CC1CCN(C#N)CC1CC[N+](=O)[O-] (stereo not given),> 100 µM

# System: OVCAR-5 ovarian
# Assay: NCI tumour cell line growth inhibition, 48 h
row,SMILES,TGI
1,C/C(CC(=O)CCC(=O)Nc1cccc(C(F)(F)F)c1)=N\NC(=O)NN,> 100 µM
2,COc1ccccc1C12OC(=O)C1(C)Oc1ccccc1C2=O (stereo not given),> 100 µM
3,O=CN/C=C/c1cc(O)ccc1O,> 100 µM

# System: NCI-H23 lung
# Assay: NCI tumour cell line growth inhibition, 48 h
row,SMILES,TGI
1,C/C(CC(=O)CCC(=O)Nc1cccc(C(F)(F)F)c1)=N\NC(=O)NN,> 100 µM
2,COc1ccccc1C12OC(=O)C1(C)Oc1ccccc1C2=O (stereo not given),> 100 µM
3,Brc1ccc(N=c2nc3ccccn3n3nc(-c4ccccc4)cc23)cc1,> 100 µM
4,O=CN/C=C/c1cc(O)ccc1O,43.7 µM

# System: HT29 colon
# Assay: NCI tumour cell line growth inhibition, 48 h
row,SMILES,TGI
1,C/C(CC(=O)CCC(=O)Nc1cccc(C(F)(F)F)c1)=N\NC(=O)NN,> 100 µM
2,COc1ccccc1C12OC(=O)C1(C)Oc1ccccc1C2=O (stereo not given),> 100 µM
3,Brc1ccc(N=c2nc3ccccn3n3nc(-c4ccccc4)cc23)cc1,> 100 µM
4,O=CN/C=C/c1cc(O)ccc1O,56.5 µM

# System: P388/ADR leukemia
# Assay: NCI tumour cell line growth inhibition, 48 h
row,SMILES,TGI
1,O=CN/C=C/c1cc(O)ccc1O,4.14 µM

# System: 786-0 renal
# Assay: NCI tumour cell line growth inhibition, 48 h
row,SMILES,TGI
1,C/C(CC(=O)CCC(=O)Nc1cccc(C(F)(F)F)c1)=N\NC(=O)NN,> 100 µM
2,COc1ccccc1C12OC(=O)C1(C)Oc1ccccc1C2=O (stereo not given),> 100 µM
3,Brc1ccc(N=c2nc3ccccn3n3nc(-c4ccccc4)cc23)cc1,65.2 µM
4,O=CN/C=C/c1cc(O)ccc1O,27.1 µM
5,COC(=O)CC1CCN(C#N)CC1CC[N+](=O)[O-] (stereo not given),> 100 µM

# System: SW-620 colon
# Assay: NCI tumour cell line growth inhibition, 48 h
row,SMILES,TGI
1,C/C(CC(=O)CCC(=O)Nc1cccc(C(F)(F)F)c1)=N\NC(=O)NN,> 100 µM
2,COc1ccccc1C12OC(=O)C1(C)Oc1ccccc1C2=O (stereo not given),> 100 µM
3,Brc1ccc(N=c2nc3ccccn3n3nc(-c4ccccc4)cc23)cc1,> 100 µM
4,O=CN/C=C/c1cc(O)ccc1O,21.5 µM
5,COC(=O)CC1CCN(C#N)CC1CC[N+](=O)[O-] (stereo not given),> 100 µM

# System: KM20L2 colon
# Assay: NCI tumour cell line growth inhibition, 48 h
row,SMILES,TGI
1,C/C(CC(=O)CCC(=O)Nc1cccc(C(F)(F)F)c1)=N\NC(=O)NN,> 100 µM
2,COc1ccccc1C12OC(=O)C1(C)Oc1ccccc1C2=O (stereo not given),> 100 µM
3,Brc1ccc(N=c2nc3ccccn3n3nc(-c4ccccc4)cc23)cc1,> 100 µM
4,O=CN/C=C/c1cc(O)ccc1O,> 80.3 µM
5,COC(=O)CC1CCN(C#N)CC1CC[N+](=O)[O-] (stereo not given),> 100 µM

# System: MCF7 breast
# Assay: NCI tumour cell line growth inhibition, 48 h
row,SMILES,TGI
1,O=CN/C=C/c1cc(O)ccc1O,30.2 µM

# System: U251 CNS
# Assay: NCI tumour cell line growth inhibition, 48 h
row,SMILES,TGI
1,C/C(CC(=O)CCC(=O)Nc1cccc(C(F)(F)F)c1)=N\NC(=O)NN,> 100 µM
2,COc1ccccc1C12OC(=O)C1(C)Oc1ccccc1C2=O (stereo not given),> 100 µM
3,Brc1ccc(N=c2nc3ccccn3n3nc(-c4ccccc4)cc23)cc1,> 100 µM
4,O=CN/C=C/c1cc(O)ccc1O,> 66 µM
5,COC(=O)CC1CCN(C#N)CC1CC[N+](=O)[O-] (stereo not given),> 100 µM

# System: IGROV1 ovarian
# Assay: NCI tumour cell line growth inhibition, 48 h
row,SMILES,TGI
1,C/C(CC(=O)CCC(=O)Nc1cccc(C(F)(F)F)c1)=N\NC(=O)NN,> 100 µM
2,COc1ccccc1C12OC(=O)C1(C)Oc1ccccc1C2=O (stereo not given),> 100 µM
3,Brc1ccc(N=c2nc3ccccn3n3nc(-c4ccccc4)cc23)cc1,> 100 µM
4,O=CN/C=C/c1cc(O)ccc1O,71.4 µM
5,COC(=O)CC1CCN(C#N)CC1CC[N+](=O)[O-] (stereo not given),> 100 µM

# System: HOP-62 NSCLC
# Assay: NCI tumour cell line growth inhibition, 48 h
row,SMILES,TGI
1,C/C(CC(=O)CCC(=O)Nc1cccc(C(F)(F)F)c1)=N\NC(=O)NN,> 100 µM
2,COc1ccccc1C12OC(=O)C1(C)Oc1ccccc1C2=O (stereo not given),> 100 µM
3,Brc1ccc(N=c2nc3ccccn3n3nc(-c4ccccc4)cc23)cc1,32.8 µM
4,O=CN/C=C/c1cc(O)ccc1O,> 100 µM
5,COC(=O)CC1CCN(C#N)CC1CC[N+](=O)[O-] (stereo not given),> 100 µM

# System: DU-145 prostate
# Assay: NCI tumour cell line growth inhibition, 48 h
row,SMILES,TGI
1,O=CN/C=C/c1cc(O)ccc1O,> 100 µM

# System: CAKI-1 renal
# Assay: NCI tumour cell line growth inhibition, 48 h
row,SMILES,TGI
1,C/C(CC(=O)CCC(=O)Nc1cccc(C(F)(F)F)c1)=N\NC(=O)NN,> 100 µM
2,Brc1ccc(N=c2nc3ccccn3n3nc(-c4ccccc4)cc23)cc1,59.9 µM
